Reference: ChEMBL document CHEMBL6134771, “Ligand-centred phenotype-driven development of potent kinase inhibitors against oesophageal cancer” (RSC Med Chem, 2025)
Active and inactive are the calls of the source. No cut-off for these calls is given here.

Assays:
OE33 [1] = experiment: Antiproliferative activity against human OE33 cells assessed as reduction in cell viability at 0.003 to 30 uM measured after 5 days by PrestoBlue reagent based fluorescence analysis; assay type: functional; conditions: dose 0.003-30 µM, time 5.0 day
cells [2] = conditions: Homo sapiens, FLO-1, 120 h
Description: Antiproliferative activity against human FLO-1 cells assessed as reduction in cell viability measured after 5 days by PrestoBlue reagent based fluorescence analysis

OE33 [3] = experiment: cells; conditions: Homo sapiens, OE33, 120 h
Description: Antiproliferative activity against human OE33 cells assessed as reduction in cell viability measured after 5 days by PrestoBlue reagent based fluorescence analysis

FLO-1 = experiment: Antiproliferative activity against human FLO-1 cells assessed as reduction in cell viability at 0.003 to 30 uM measured after 5 days by PrestoBlue reagent based fluorescence analysis; assay type: functional; conditions: dose 0.003-30 µM, time 5.0 day
OACp4C = experiment: Antiproliferative activity against human OACp4C cells assessed as reduction in cell viability at 0.003 to 30 uM measured after 5 days by PrestoBlue reagent based fluorescence analysis; assay type: functional; conditions: dose 0.003-30 µM, time 5.0 day
EPC-2 = experiment: Antiproliferative activity against human EPC-2 cells assessed as reduction in cell viability at 0.003 to 30 uM measured after 5 days by PrestoBlue reagent based fluorescence analysis; assay type: functional; conditions: dose 0.003-30 µM, time 5.0 day
MFD-1 = experiment: Antiproliferative activity against human MFD-1 cells assessed as reduction in cell viability at 0.003 to 30 uM measured after 5 days by PrestoBlue reagent based fluorescence analysis; assay type: functional; conditions: dose 0.003-30 µM, time 5.0 day
cells [4] = conditions: Homo sapiens, MFD-1, 120 h
Description: Antiproliferative activity against human MFD-1 cells assessed as reduction in cell viability measured after 5 days by PrestoBlue reagent based fluorescence analysis

JH-EsoAd1 = experiment: Antiproliferative activity against human JH-EsoAd1 cells assessed as reduction in cell viability at 0.003 to 30 uM measured after 5 days by PrestoBlue reagent based fluorescence analysis; assay type: functional; conditions: dose 0.003-30 µM, time 5.0 day
SKGT4 = experiment: Antiproliferative activity against human SKGT4 cells assessed as reduction in cell viability at 0.003 to 30 uM measured after 5 days by PrestoBlue reagent based fluorescence analysis; assay type: functional; conditions: dose 0.003-30 µM, time 5.0 day
cells [5] = conditions: Homo sapiens, SKGT4, 120 h
Description: Antiproliferative activity against human SKGT4 cells assessed as reduction in cell viability measured after 5 days by PrestoBlue reagent based fluorescence analysis

CP-A = experiment: Antiproliferative activity against human CP-A cells assessed as reduction in cell viability at 0.003 to 30 uM measured after 5 days by PrestoBlue reagent based fluorescence analysis; assay type: functional; conditions: dose 0.003-30 µM, time 5.0 day
Aurora kinase A = biological target: T1, Aurora kinase A (Homo sapiens, UniProt O14965); experiment: Inhibition of recombinant AuroraA (unknown origin)
T1 sequence (O14965 whole entry): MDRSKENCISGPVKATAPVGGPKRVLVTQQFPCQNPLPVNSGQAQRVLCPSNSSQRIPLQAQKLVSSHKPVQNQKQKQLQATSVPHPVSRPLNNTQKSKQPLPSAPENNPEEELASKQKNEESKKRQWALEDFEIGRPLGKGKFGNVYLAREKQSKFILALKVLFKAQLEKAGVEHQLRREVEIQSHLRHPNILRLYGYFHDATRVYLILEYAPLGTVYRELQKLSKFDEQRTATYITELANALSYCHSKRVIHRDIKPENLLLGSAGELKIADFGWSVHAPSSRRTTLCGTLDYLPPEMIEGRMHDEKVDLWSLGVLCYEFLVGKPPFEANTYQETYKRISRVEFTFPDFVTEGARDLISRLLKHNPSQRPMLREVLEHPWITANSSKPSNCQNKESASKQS

Row | Structure (SMILES) | Activity (OE33 [1]) | Activity (FLO-1) | also measured
1 | CNc1ncc2c(/C=C/C(=O)N3CCC4(CC3)OCCO4)nn(Cc3cccc(C)c3)c2n1 | Active | Active | EC50 (cells [2]): 1240 nM; EC50 (OE33 [3]): 830 nM
2 | Nc1ncnc2c1c(/C=C/C(=O)N1CCC(O)CC1)nn2CC1CCCC1 | inactive | inactive | –
3 | CN(C)C1CCN(C(=O)/C=C/c2nn(CC3CCCC3)c3ncnc(N)c23)CC1 | inactive | inactive | –
4 | Nc1ncnc2c1c(/C=C/C(=O)N1CCC(c3ccccc3)CC1)nn2CC1CCCC1 | – | – | EC50 (cells [2]): ~30000 nM; EC50 (OE33 [3]): ~30000 nM
5 | CNc1ncc2c(/C=C/C(=O)N3CCC(c4ccccc4)CC3)nn(CC3CCCC3)c2n1 | – | Active | –
6 | Nc1ncnc2c1c(/C=C/C(=O)N1CCC(CCO)CC1)nn2CC1CCCC1 | inactive | inactive | –
7 | CNc1ncc2c(/C=C/C(=O)N3CCC(OC)CC3)nn(Cc3ccc(OC)cc3)c2n1 | Active; Partial Restoration Of Antiproliferative Activity Observed | Active; Partial Restoration Of Antiproliferative Activity Observed | –
8 | Nc1ncnc2c1c(/C=C/C(=O)N1CCCC1)nn2CC1CCCC1 | – | – | EC50 (cells [2]): ~30000 nM; EC50 (OE33 [3]): ~30000 nM
9 | CNc1ncc2c(/C=C/C(=O)N3CCCC(N(C)C)C3)nn(CC3CCCC3)c2n1 (stereo not given) | – | Active | –
10 | CNc1ncc2c(/C=C/C(=O)N3CCC(N(C)C)CC3)nn(CC3CCCC3)c2n1 | – | Active | –
11 | CNc1ncc2c(/C=C/C(=O)N3CCCC(OC)C3)nn(Cc3cccc(C)c3)c2n1 (stereo not given) | inactive | inactive | –
12 | CNc1ncc2c(/C=C/C(=O)N3CCC(OC)CC3)nn(CC(C)(C)C)c2n1 | inactive | inactive | –
13 | CNc1ncc2c(/C=C/C(=O)N3CCC(OC)CC3)nn(CC3CCCCC3)c2n1 | Active | Active | –
14 | CNc1ncc2c(/C=C/C(=O)N3CCC4(CC3)OCCO4)nn(Cc3cccc(C(F)(F)F)c3)c2n1 | – | – | EC50 (cells [2]): 700 nM; EC50 (OE33 [3]): 560 nM; Activity (OACp4C): Active; Activity (EPC-2): Active; Activity (MFD-1): Active; EC50 (cells [4]): 920 nM; Activity (JH-EsoAd1): Active; Activity (SKGT4): Active; EC50 (cells [5]): 2900 nM; Activity (CP-A): Active
15 | CNc1ncc2c(/C=C/C(=O)N3CCC(OC)CC3)nn(CC3OCCO3)c2n1 | inactive | inactive | –
16 | CNc1ncc2c(/C=C/C(=O)N3CCC(OC)CC3)nn(Cc3ccccc3)c2n1 | Active | Active | –
17 | CNc1ncc2c(/C=C/C(=O)N3CCC(OC)CC3)nn(Cc3ccccc3C(F)(F)F)c2n1 | inactive | inactive | –
18 | Nc1ncnc2c1c(/C=C/C(=O)N1CCCCC1)nn2CC1CCCC1 | inactive | inactive | –
19 | Nc1ncnc2c1c(/C=C/C(=O)N1CCOCC1)nn2CC1CCCC1 | inactive | inactive | –
20 | CNc1ncc2c(/C=C/C(=O)N3CCC(C)CC3)nn(CC3CCCC3)c2n1 | – | Active | –
21 | CCOC1CCN(C(=O)/C=C/c2nn(Cc3cccc(C)c3)c3nc(NC)ncc23)CC1 | inactive | inactive | –
22 | CNc1ncc2c(/C=C/C(=O)N3CCC(OC)CC3)nn(CCC(C)C)c2n1 | inactive | inactive | –
23 | CNc1ncc2c(/C=C/C(=O)N3CCC(OC)CC3)nn(Cc3ccccc3C)c2n1 | inactive | inactive | –

Row | Structure (SMILES) | Activity (OE33 [1]) | Activity (FLO-1) | also measured
24 | CNc1ncc2c(/C=C/C(=O)N3CCC(OC)CC3)nn(CC3CCCC3)c2n1 | – | Active | EC50 (cells [2]): < 9000 nM; EC50 (OE33 [3]): < 9000 nM
25 | CNc1ncc2c(/C=C/C(=O)N3CCC(OC)CC3)nn(CC3CCCO3)c2n1 (stereo not given) | inactive | inactive | –
26 | Nc1ncnc2c1c(/C=C/C(=O)O)nn2CC1CCCC1 | inactive | inactive | –
27 | COC1CCN(C(=O)/C=C/c2nn(CC3CCCC3)c3ncnc(N)c23)CC1 | inactive | inactive | –
28 | CNc1ncc2c(/C=C/C(=O)N3CCC(OC)CC3)nn(C(C)C)c2n1 | inactive | inactive | –
29 | CNc1ncc2c(/C=C/C(=O)N3CCC(OC)CC3)nn(Cc3cccc(C(F)(F)F)c3)c2n1 | – | – | IC50 (Aurora kinase A): 1450 nM
30 | CNc1ncc2c(/C=C/C(=O)N3CCC(COC)CC3)nn(Cc3cccc(C)c3)c2n1 | inactive | inactive | –
31 | CC1CCN(C(=O)/C=C/c2nn(CC3CCCC3)c3ncnc(N)c23)CC1 | inactive | inactive | –
32 | CNc1ncc2c(/C=C/C(=O)N3CCC(OC)CC3)nn(CC(OC)OC)c2n1 | inactive | inactive | –
33 | CNc1ncc2c(/C=C/C(=O)N3CCC(OC)CC3)nn(Cc3cccc(OC)c3)c2n1 | Active | Active | –
34 | CNc1ncc2c(/C=C/C(=O)N3CCC(CCO)CC3)nn(CC3CCCC3)c2n1 | – | Active | –
35 | CNc1ncc2c(/C=C/C(=O)N3CCC(OC)CC3)nn(Cc3cccc(C)c3)c2n1 | Active | Active | EC50 (cells [2]): 2500 nM; EC50 (OE33 [3]): 1800 nM
36 | CCOC(Cn1nc(/C=C/C(=O)N2CCC(OC)CC2)c2cnc(NC)nc21)OCC | inactive | inactive | –
37 | CNc1ncc2c(/C=C/C(=O)N3CCC(O)CC3)nn(CC3CCCC3)c2n1 | – | Active | –
38 | CNc1ncc2c(/C=C/C(=O)N3CCCCC3)nn(CC3CCCC3)c2n1 | – | Active | –
39 | CNc1ncc2c(/C=C/C(=O)N3CCC(OC)CC3)nn(Cc3ccc(C)cc3)c2n1 | Active; Partial Restoration Of Antiproliferative Activity Observed | Active; Partial Restoration Of Antiproliferative Activity Observed | –
40 | CNc1ncc2c(/C=C/C(=O)O)nn(CC3CCCC3)c2n1 | inactive | inactive | –
41 | CN(C)C1CCCN(C(=O)/C=C/c2nn(CC3CCCC3)c3ncnc(N)c23)C1 (stereo not given) | inactive | inactive | –
42 | CNc1ncc2c(/C=C/C(=O)N3CCC(OC)CC3)nn(Cc3ccccc3OC)c2n1 | inactive | inactive | –
43 | CNc1ncc2c(/C=C/C(=O)N3CCCC3)nn(CC3CCCC3)c2n1 | – | Active | –
44 | COC(=O)/C=C/c1nn(CC2CCCC2)c2ncnc(N)c12 | inactive | inactive | –
45 | CNc1ncc2c(/C=C/C(=O)N3CCC(OC)CC3)nn(Cc3ccc(C(F)(F)F)cc3)c2n1 | Active; Partial Restoration Of Antiproliferative Activity Observed | Active; Partial Restoration Of Antiproliferative Activity Observed | –
46 | CNc1ncc2c(/C=C/C(=O)N3CCOCC3)nn(CC3CCCC3)c2n1 | – | Active | –
